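The compound was tested at five concentrations on cells cultured in 96-well plates, with a 48-hour exposure period. The concentration for full growth arrest is given as TGI.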

Experimental findings from PubChem BioAssay (NCI) are described below.

Test systems include ACHN renal; CCRF-CEM leukemia; HCT-15 colon; IGROV1 ovarian; NCI-H23 lung; OVCAR-3 ovarian; SF-295 CNS; SK-MEL-2 melanoma; SN12C renal; SR leukemia; U251 CNS; UACC-257 melanoma; UACC-62 melanoma; UO-31 renal; HCC-2998 colon.
Common to all, as to test: NCI anticancer screen, dose series, 48 h

With `Cc1ccc(O)c(C2=NNC(c3cccc(Cl)c3)C2)c1` (centres undefined), the TGI was above 100 µM with ACHN renal; above 100 µM in the assay with CCRF-CEM leukemia; 29.3 µM in the assay on HCT-15 colon; 48.8 µM with IGROV1 ovarian; above 100 µM in the assay with NCI-H23 lung; above 100 µM in the assay with OVCAR-3 ovarian. The TGI was above 100 µM in the assay on SF-295 CNS; 94.1 µM in the assay with SK-MEL-2 melanoma; above 100 µM with SN12C renal; above 100 µM with SR leukemia; above 100 µM in the assay on U251 CNS; above 100 µM in the assay with UACC-257 melanoma. Further, the TGI in the assay on UACC-62 melanoma and with UO-31 renal was above 100 µM each time.
As to `Cc1cc(S(=O)(=O)NC2=NCC(C)(C)CN2)c(S)cc1Cl`, the TGI is 71.6 µM in the assay with ACHN renal; above 100 µM in the assay on HCC-2998 colon; above 100 µM in the assay on HCT-15 colon; above 100 µM in the assay on IGROV1 ovarian; above 100 µM in the assay on OVCAR-3 ovarian; above 100 µM in the assay with SK-MEL-2 melanoma. In addition, the TGI in the assay on SN12C renal was above 100 µM; with SR leukemia, above 100 µM; with U251 CNS, 89 µM; in the assay with UACC-257 melanoma, above 100 µM; with UACC-62 melanoma, 61.9 µM; in the assay with UO-31 renal, 99.8 µM.
Take `COC(=O)CNC(=O)CSc1nnc(COc2ccc(Cl)cc2)n1-c1ccccc1`: the TGI in the assay on ACHN renal is 55 µM; in the assay with CCRF-CEM leukemia, above 100 µM; with HCC-2998 colon, 59.1 µM; in the assay on HCT-15 colon, above 100 µM; with IGROV1 ovarian it was 54 µM; in the assay with NCI-H23 lung, above 100 µM. Besides, the TGI in the assay on OVCAR-3 ovarian was above 100 µM; in the assay with SF-295 CNS, above 100 µM; with SK-MEL-2 melanoma it was 50.7 µM; in the assay with SN12C renal, 38.5 µM; in the assay on U251 CNS it was above 100 µM; in the assay on UACC-257 melanoma, 75.8 µM. Also, the TGI in the assay on UACC-62 melanoma was above 100 µM; in the assay with UO-31 renal, 77.3 µM.
Regarding `CCCC(C(=O)Nc1cccc2[nH]cnc12)C(=O)OCC` (centres undefined), the TGI in the assay with ACHN renal, in the assay with HCC-2998 colon, in the assay with HCT-15 colon, in the assay with IGROV1 ovarian, with OVCAR-3 ovarian and in the assay on SF-295 CNS was above 100 µM throughout. Moreover, the TGI in the assay with SK-MEL-2 melanoma, in the assay with SN12C renal, with SR leukemia, with U251 CNS, with UACC-257 melanoma and in the assay on UACC-62 melanoma was above 100 µM throughout. The compound also had a TGI with UO-31 renal above 100 µM.
For the compound `C[C@H]1S[C@H](c2c(F)cccc2F)n2c1nc1ccccc12`, the TGI in the assay on ACHN renal, in the assay with CCRF-CEM leukemia, in the assay on HCC-2998 colon, with HCT-15 colon, in the assay on IGROV1 ovarian and with NCI-H23 lung was above 100 µM each time. Also, the TGI in the assay on OVCAR-3 ovarian, in the assay on SF-295 CNS, in the assay on SK-MEL-2 melanoma, in the assay with SN12C renal, with U251 CNS and in the assay on UACC-257 melanoma was above 100 µM in each case. For the same compound, the TGI with UACC-62 melanoma and in the assay on UO-31 renal was above 100 µM each time.
As to `Nc1ncc2c(n1)-c1ccccc1OC2N1CCOCC1` (centres undefined), the TGI in the assay with ACHN renal, with CCRF-CEM leukemia, in the assay on HCT-15 colon, in the assay on IGROV1 ovarian, in the assay on NCI-H23 lung and in the assay with OVCAR-3 ovarian was above 100 µM in each case. Further, the TGI in the assay with SF-295 CNS, with SK-MEL-2 melanoma, in the assay with SN12C renal, in the assay with SR leukemia, with U251 CNS and in the assay on UACC-257 melanoma was above 100 µM each time. For the same compound, the TGI in the assay with UACC-62 melanoma and in the assay with UO-31 renal was above 100 µM each time.
Turning to `CCOC(=O)/C(=C\c1c(C)[nH]c2ccccc12)P(=O)(OCC)OCC`, the TGI in the assay on ACHN renal, in the assay with HCC-2998 colon, in the assay with HCT-15 colon, with IGROV1 ovarian, with NCI-H23 lung and in the assay on OVCAR-3 ovarian was above 100 µM throughout. Besides, the TGI in the assay on SF-295 CNS, with SN12C renal, in the assay with SR leukemia, with U251 CNS, with UACC-257 melanoma and with UACC-62 melanoma was above 100 µM each time.
As for `O=Cc1ccc(-c2ccc(S(=O)(=O)O)cc2)o1`, the TGI in the assay with ACHN renal, in the assay with HCC-2998 colon, with HCT-15 colon, with IGROV1 ovarian, with NCI-H23 lung and in the assay on OVCAR-3 ovarian was above 100 µM throughout. Besides, the TGI in the assay on SF-295 CNS, in the assay on SK-MEL-2 melanoma, with SN12C renal, in the assay on SR leukemia, with U251 CNS and in the assay on UACC-257 melanoma was above 100 µM throughout. The TGI with UACC-62 melanoma and with UO-31 renal was above 100 µM in each case.
As to `O=C(NC(CCCCN1C(=O)c2ccccc2C1=O)P(=O)(Oc1ccccc1)Oc1ccccc1)OCc1ccccc1` (centres undefined), the TGI with ACHN renal, in the assay on HCC-2998 colon, with IGROV1 ovarian, in the assay on NCI-H23 lung, with OVCAR-3 ovarian and in the assay on SF-295 CNS was above 100 µM in each case. The TGI in the assay on SK-MEL-2 melanoma, with SN12C renal, with SR leukemia, in the assay on U251 CNS, in the assay on UACC-257 melanoma and with UACC-62 melanoma was above 100 µM in each case. The compound also came in with a TGI in the assay with UO-31 renal above 100 µM.
As to `COC1(C)CNCC(C)(C)NC(=O)C(C)(OC)CNCC(C)(C)NC1=O` (centres undefined), the TGI in the assay with ACHN renal, with CCRF-CEM leukemia, in the assay with HCC-2998 colon, in the assay on HCT-15 colon, with IGROV1 ovarian and with NCI-H23 lung was above 100 µM each time. The TGI in the assay with OVCAR-3 ovarian, with SF-295 CNS, in the assay with SK-MEL-2 melanoma, in the assay with SN12C renal, in the assay on U251 CNS and in the assay with UACC-257 melanoma was above 100 µM throughout. The TGI in the assay on UACC-62 melanoma and in the assay with UO-31 renal was above 100 µM each time.
